Measured values from ChEMBL document CHEMBL3603812, “Biarylsulfonamide CCR9 inhibitors for inflammatory bowel disease” (Bioorg Med Chem Lett, 2015).
Converted amounts (≈) assume the structure as drawn.

How the values were obtained:
[1] = target: T1, C-C chemokine receptor type 9 (Homo sapiens, UniProt P51686)
T1 sequence (P51686 whole entry): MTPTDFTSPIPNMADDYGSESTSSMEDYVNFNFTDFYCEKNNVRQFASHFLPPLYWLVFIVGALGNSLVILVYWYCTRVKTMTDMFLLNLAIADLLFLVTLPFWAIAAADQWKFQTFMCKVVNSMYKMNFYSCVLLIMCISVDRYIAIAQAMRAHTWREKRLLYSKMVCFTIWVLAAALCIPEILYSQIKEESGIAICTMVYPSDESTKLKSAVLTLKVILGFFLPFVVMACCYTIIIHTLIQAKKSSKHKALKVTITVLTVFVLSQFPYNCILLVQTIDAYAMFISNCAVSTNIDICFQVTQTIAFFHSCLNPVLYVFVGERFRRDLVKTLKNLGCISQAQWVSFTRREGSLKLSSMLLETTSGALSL
Description: Antagonist activity at CCR9 receptor (unknown origin) assessed as inhibition of TECK-induced calcium mobilization incubated for 10 mins prior to TECK induction

[2] = Solubility of the compound at pH 9; assay type: physicochemical; details: buffer
[3] = Volume of distribution at steady state in iv dosed mouse; assay type: ADME, organism-based; details: in vivo, read-out: Vdss
[4] = Oral bioavailability in mouse; assay type: ADME, organism-based; details: in vivo
[5] = Clearance in mouse liver microsomes; assay type: ADME; details: read-out: CLH
[6] = Clearance in iv dosed mouse; assay type: ADME, organism-based; details: in vivo
[7] = system: Mus musculus; assay: Dose normalized AUC in iv dosed mouse; assay type: ADME, organism-based; details: in vivo
[8] = Plasma protein binding in human; assay type: ADME, cell-free; details: read-out: PPB (converted)
[9] = Terminal half life in iv and po dosed mouse; assay type: ADME, organism-based; details: in vivo, read-out: beta t1/2 (converted)
[10] = Solubility of the compound at pH 7.4; assay type: physicochemical; details: buffer
[11] = Lipophilicity, log D of the compound; assay type: physicochemical; details: octanol/water

Row | IC50 [1] [nM] | SMILES | other results
1 | 6 | CCc1ncnc(-c2cc(Cl)ccc2NS(=O)(=O)c2ccc(C(C)(C)C)cc2)c1O | 
2 | 1010 | CNc1cnc(-c2cc(Cl)ccc2NS(=O)(=O)c2ccc(C(C)(C)C)cc2)c(NCCO)n1 | 
3 | 2500 | COc1ccnc(-c2cc(Cl)ccc2NS(=O)(=O)c2ccc(C(C)(C)C)cc2)c1 | 
4 | 9 | CN(C)c1ncnc(-c2cc(Cl)ccc2NS(=O)(=O)c2ccc(C(C)(C)C)cc2)c1O | 
5 | 11 | CC(C)(C)c1ccc(S(=O)(=O)Nc2ccc(Cl)cc2-c2ncnc(CO)c2O)cc1 | 
6 | 3.8 | CC(C)(C)c1ccc(S(=O)(=O)Nc2ccc(Cl)cc2-c2nnccc2N)cc1 | 
7 | 95 | CC(C)(C)c1ccc(S(=O)(=O)Nc2ccc(Cl)cc2-c2ncccc2N)cc1 | 
8 | 27 | CNc1ncc(O)c(-c2cc(Cl)ccc2NS(=O)(=O)c2ccc(C(C)(C)C)cc2)n1 | 
9 | 26 | CC(C)(C)c1ccc(S(=O)(=O)Nc2ccc(Cl)cc2-c2nncc(N3CCOCC3)c2N)cc1 | 
10 | 268 | Cc1cnc(-c2cc(Cl)ccc2NS(=O)(=O)c2ccc(C(C)(C)C)cc2)c(NCCO)n1 | 
11 | 3480 | COCc1cccnc1-c1cc(Cl)ccc1NS(=O)(=O)c1ccc(C(C)(C)C)cc1 | 
12 | 29 | CC(C)(C)c1ccc(S(=O)(=O)Nc2ccc(Cl)cc2-c2ncccc2O)cc1 | 
13 | 3600 | CN(C)CCNc1nccnc1-c1cc(Cl)ccc1NS(=O)(=O)c1ccc(C(C)(C)C)cc1 | 
14 | 89 | CC(C)(C)c1ccc(S(=O)(=O)Nc2ccc(Cl)cc2-c2ncccc2CO)cc1 | 
15 | 958 | COc1cccnc1-c1cc(Cl)ccc1NS(=O)(=O)c1ccc(C(C)(C)C)cc1 | 
16 | 491 | CC(C)(C)c1ccc(S(=O)(=O)Nc2ccc(Cl)cc2-c2c(O)ccc[n+]2[O-])cc1 | 
17 | 34 | CC(C)(C)c1ccc(S(=O)(=O)Nc2ccc(Cl)cc2-c2nccnc2NCCO)cc1 | solubility [2]: 1100 µg/mL (≈ 2390 µM); Vd [3]: 1.1 L/kg; bioavailability [4]: 38%; CLint scaled [5]: 49 mL/min/kg; clearance [6]: 26 mL/min/kg; AUC/dose [7]: 0.65 µg·h/mL/mg/kg; fraction unbound [8]: 0.016; half-life [9]: 1.2 h; solubility [10]: 240 µg/mL (≈ 521 µM)

Row | IC50 [1] [nM] | SMILES | other results
18 | 14 | CC(C)(C)c1ccc(S(=O)(=O)Nc2ccc(Cl)cc2-c2ncnc(N)c2O)cc1 | 
19 | 3160 | CC(C)(C)c1ccc(S(=O)(=O)Nc2ccc(Cl)cc2-c2ncccc2CN)cc1 | 
20 | 4 | CC(C)(C)c1ccc(S(=O)(=O)Nc2ccc(Cl)cc2-c2nc(N)ncc2O)cc1 | 
21 | 8.7 | CC(C)(C)c1ccc(S(=O)(=O)Nc2ccc(Cl)cc2-c2nccc(CO)c2O)cc1 | 
22 | 715 | CC(C)(C)c1ccc(S(=O)(=O)Nc2ccc(Cl)cc2-c2nc(Cl)cnc2NCCO)cc1 | 
23 | 11 | CC(C)(C)c1ccc(S(=O)(=O)Nc2ccc(Cl)cc2-c2ncncc2O)cc1 | 
24 | 812 | CC(C)(C)c1ccc(S(=O)(=O)Nc2ccc(Cl)cc2-c2nccnc2NCC(=O)O)cc1 | 
25 | 421 | CCNc1nccnc1-c1cc(Cl)ccc1NS(=O)(=O)c1ccc(C(C)(C)C)cc1 | 
26 | 52 | CC(C)(C)c1ccc(S(=O)(=O)Nc2ccc(Cl)cc2-c2nccc(C(N)=O)c2O)cc1 | 
27 | > 10000 | CC(C)(C)c1ccc(S(=O)(=O)Nc2ccc(Cl)cc2-c2ccccn2)cc1 | 
28 | 614 | CC(C)(C)c1ccc(S(=O)(=O)Nc2ccc(Cl)cc2-c2nccnc2NCCCO)cc1 | 
29 | 3.2 | CC(C)(C)c1ccc(S(=O)(=O)Nc2ccc(Cl)cc2-c2ncncc2N)cc1 | 
30 | 25 | CNc1nccnc1-c1cc(Cl)ccc1NS(=O)(=O)c1ccc(C(C)(C)C)cc1 | 
31 | 0.3 | CC(C)(C)c1ccc(S(=O)(=O)Nc2ccc(Cl)cc2-c2ncccn2)cc1 | 
32 | 3.2 | CC(C)(C)c1ccc(S(=O)(=O)Nc2ccc(Cl)cc2-c2nccnc2N)cc1 | 
33 | 214 | CC(C)(C)c1ccc(S(=O)(=O)Nc2ccc(Cl)cc2-c2nc(NCCO)ncc2O)cc1 | 
34 |  | CC(C)(C)c1ccc(S(=O)(=O)Nc2ccc(Cl)cc2C(=O)c2cc[n+]([O-])cc2)cc1 [VERCIRNON] | logD [11]: 3.7; solubility [2]: 51 µg/mL (≈ 115 µM); Vd [3]: 0.83 L/kg; bioavailability [4]: 10%; CLint scaled [5]: 147 mL/min/kg; clearance [6]: 33 mL/min/kg; AUC/dose [7]: 0.56 µg·h/mL/mg/kg; fraction unbound [8]: 0.009; half-life [9]: 1.3 h; solubility [10]: 1.2 µg/mL (≈ 2.7 µM)
